The conditions of this series: Crystal; visual observation.

Numbers after ± are expanded uncertainties.

For the compound `CC(COCc1ccc(O)c2ncccc12)(COCc1ccc(O)c2ncccc12)COCc1ccc(O)c2ncccc12`, the Triple point temperature was 468.15 ± 4 K.

For the origin of these results see the NIST ThermoML archive (doi:10.1021/acs.jced.5b00488).
